Measurements: patent US4179508A, “Sulfur-containing derivatives of 4,4-dimethyl-2H,4H-isoquinoline-1,3-dione, and anticonvulsant and antihyperlipidemic compositions thereof” (Boehringer Ingelheim GmbH, priority 1977, dated 1979)
Like-named read-outs stand apart in the source and are kept apart here.

How the values were obtained:
Assay type in all cases: in vivo
Acute toxicity = settings: mouse, in vivo, po; mice, p.o., groups of 10, observation time 4 days
Procedure: (§1) The anticonvulsive activity and toxicity of the compounds of this invention were ascertained by the methods described below, and tables I and II show the results of these tests for a few representative species of the genus, where
(§2) The acute toxicity of the compounds was determined after administration of various dosages to groups of 10 mice with body weights of between 20 and 26 gm (observation time: 4 days).

mice = experiment: Acute toxicity; settings: 500 mgm/kg p.o., observation time 4 days
Procedure: as §1, §2

[1] = test system: hind limb tonic extensor component of the maximal seizure pattern; experiment: Anticonvulsive activity in mice, maximal electroshock seizure pattern method; settings: Mus musculus, male mice, oral, maximal electroshock 50 mA, 0.2 sec.
Procedure: as §1
Male mice with body weights of between 20 and 26 gm were used as the test animals. They were allowed free access to food and water up to one hour before administration of the test compound. The tests were carried out by using the maximal electroshock seizure pattern method [SWINYARD et, J. Pharmacol. exp. Ther. 106, 319 (1952)].
The electroshock apparatus was constructed according to WOODBURY and DAVENPORT [Arch. int. Pharmacodyn. 99, 97 (1952)]. The electric impulses (50 Hz A.C., 50 mA, 0.2 sec.) were delivered via steel ball electrodes covered with buckskin and moistened with an aqueous 0.9% sodium chloride solution to the heads by way of the eyes of the mice. The test is a measure of the ability of an anticonvulsant drug to abolish the hind limb tonic extensor component of the maximal seizure pattern induced by electric stimulation. The test compound was suspended in 1% of tylose and administered orally in a volume of 0.1 ml per 10 gm of mouse, and each dosage was administered to a group of 10 animals. Control groups received the suspension agent orally. 30, 150 and 300 minutes after administration all animals were shocked. ED50 values were determined by the graphic statistical method of LITCHFIELD and WILCOXON [J. Pharmacol. exp. Therap. 96, 99 (1949)] as a measure of the ability of the test compounds to abolish the hindlimb tonic extensor compound of the maximal seizure pattern in 50 percent of the animals.

[2] = 0.5 h, shocked 30 minutes after administration, read-out: ED50, 30 minutes
[3] = 2.5 h, shocked 150 minutes after administration, read-out: ED50, 150 minutes
[4] = 5 h, shocked 300 minutes after administration, read-out: ED50, 300 minutes

Row | SMILES | LD50 at 96 h (Acute toxicity) | animals died (mice) | ED50 [1, 2] | ED50 [1, 3] | ED50 [1, 4]
1 | C[S+]([O-])CCN1C(=O)c2ccccc2C(C)(C)C1=O (stereo not drawn) [B, 4,4-Dimethyl-2-(2-methylsulfinyl-ethyl)-2H,4H-isoqionoline-1,3-dione] | ~500 mg/kg | 4 of 10 | 14.5 mg/kg | 16.8 mg/kg | 25 mg/kg
2 | CC1(C)C(=O)N(CCS(C)(=O)=O)C(=O)c2ccccc21 [C, 4,4-Dimethyl-2-(2-methylsulfonyl-ethyl)-2H,4H-isoquinoline-1,3-dione] | > 500 mg/kg | 1 of 10 | 26.3 mg/kg | 35.2 mg/kg | 32.5 mg/kg
3 | CSCCN1C(=O)c2ccccc2C(C)(C)C1=O [Compound A, 4,4-Dimethyl-2-(2-methylmercapto-ethyl)-2H,4H-isoquinoline-1,3-dione] | > 500 mg/kg | 0 of 10 | 17.3 mg/kg | 22.8 mg/kg | 27.8 mg/kg
4 | CSCN1C(=O)c2ccccc2C(C)(C)C1=O [D, 4,4-Dimethyl-2-(methylmercapto-methyl)-2H,4H-isoquinoline-1,3-dione] |  |  | 28 mg/kg | 16.2 mg/kg | 19.8 mg/kg
5 | C[S+]([O-])CN1C(=O)c2ccccc2C(C)(C)C1=O (stereo not drawn) [E, 4,4-Dimethyl-2-(methylsulfinyl-methyl)-2H,4H-isoquinoline-1,3-dione] |  |  | 8.3 mg/kg | 10.5 mg/kg | 11.5 mg/kg
